According to BindingDB's records for doi:10.7270/Q2PC30Z9 (Burnham Center For Chemical Genomics, 2012):

What follows are compounds tested against 26S proteasome non-ATPase regulatory subunit 14 (Homo sapiens, UniProt O00487) (assay: inhibition of proteasome subunit RPN11 – biochemical, fluorescence polarization, uHTS hits, confirmation (AID 602368)).
Chain of 26S proteasome non-ATPase regulatory subunit 14 (O00487 whole entry): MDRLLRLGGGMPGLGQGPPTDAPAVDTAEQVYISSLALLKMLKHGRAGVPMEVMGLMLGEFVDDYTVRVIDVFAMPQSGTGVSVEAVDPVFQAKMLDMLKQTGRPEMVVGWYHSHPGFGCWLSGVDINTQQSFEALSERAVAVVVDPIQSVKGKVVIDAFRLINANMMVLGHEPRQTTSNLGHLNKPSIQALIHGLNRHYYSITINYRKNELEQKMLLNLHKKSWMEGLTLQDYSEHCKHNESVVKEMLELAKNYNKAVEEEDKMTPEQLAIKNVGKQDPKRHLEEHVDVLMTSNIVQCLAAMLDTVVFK

Question: How did the IC50 turn out when `O=[N+]([O-])c1ccc(N=NCc2cccn2-c2ccccc2)nc1` [SMR000161089] was run?
Answer: 23.5 µM

Question: With `C=C(C=C(C)c1sc(S)nc1O)c1sc(S)nc1O` [MLS000723803] as the compound, how does the IC50 read?
Answer: 43.6 µM

Question: How did the IC50 turn out when `Cc1[nH]n(-c2ccccc2)c(=O)c1C=C1NC(=S)NC1=O` [5-methyl-4-[(Z)-(5-oxo-2-sulfanylideneimidazolidin-4-ylidene)methyl]-2-phenyl-4H-pyrazol-3-one] was run?
Answer: 32.4 µM

Question: How did the IC50 turn out when `CC(c1sc(S)nc1O)c1sc(S)nc1O` [5-[1-(4-oxidanylidene-2-sulfanylidene-1,3-thiazolidin-5-yl)ethyl]-2-sulfanylidene-1,3-thiazolidin-4-one] was run?
Answer: 45.4 µM

Question: With `O=[N+]([O-])c1ccc(N=NCc2c[nH]c3ccccc23)cc1` [MLS000573812] as the compound, how does the IC50 read?
Answer: 1.77 µM

Question: With `CC[n+]1c(CC=Nc2ccccc2)oc2ccc(OC)cc21` as the compound, how does the IC50 read?
Answer: 23.2 µM

Question: For `O=C(N/N=C/C1C=C([N+](=O)[O-])C=CC1=O)c1cc(-c2ccccc2)nc2ccccc12` (stereo not given) [N'-[(E)-(3-nitro-6-oxo-1-cyclohexa-2,4-dienylidene)methyl]-2-phenyl-4-quinolinecarbohydrazide], which IC50 is on record?
Answer: 14.8 µM

Question: `COc1cc2c3c(c1)C(C)=CC(C)(C)N3C(=O)C2=O` [MLS000688351] was tested. Which IC50 did it give?
Answer: 8.23 µM

Question: How did the IC50 turn out when `Oc1csc(=S)n1N=Cc1ccc(Cl)s1` [3-[(5-chlorothiophen-2-yl)methylideneamino]-2-sulfanylidene-1,3-thiazolidin-4-one] was run?
Answer: 59.4 µM

Question: `COc1cc(C=CC(=O)C2C(=O)NC(=O)N(CCc3ccccc3)C2=O)ccc1O` (stereo not given) [SMR000221203] was tested. Which IC50 did it give?
Answer: 29.2 µM

Question: How did the IC50 turn out when `CCOC(=O)C1C(=O)C(=Cc2ccc(-c3ccccc3C(=O)O)o2)SC1=Nc1ccc(OC)cc1` (stereo not given) was run?
Answer: 17.8 µM

Question: `CC1=NC(=O)NC(c2ccc(N3CCOCC3)cc2)C1C(=O)c1ccccc1` (stereo not given) [5-benzoyl-6-methyl-4-[4-(4-morpholinyl)phenyl]-3,4-dihydro-1H-pyrimidin-2-one] was tested. Which IC50 did it give?
Answer: 17.1 µM

Question: `O=c1c(Cl)c(N=NCc2ccc(Br)cc2)cnn1-c1ccccc1` was tested. Which IC50 did it give?
Answer: 21.2 µM

Question: `O=C(N/N=C/C1C=C(Cl)C=C([N+](=O)[O-])C1=O)c1ccccc1NS(=O)(=O)c1cccs1` (stereo not given) [SMR000364876] was tested. Which IC50 did it give?
Answer: 10.4 µM

Question: With `NS(=O)(=O)c1ccc(N=CCC(=O)c2ccc3ccccc3c2)cc1` [4-(3-Naphthalen-2-yl-3-oxo-propenylamino)-benzenesulfonamide] as the compound, how does the IC50 read?
Answer: 28.6 µM

Question: Which IC50 does the source give for `O=C1C=CC([N+](=O)[O-])=CC1C=NN=C1NS(=O)(=O)c2ccccc21` (stereo not given) here?
Answer: 34.9 µM

Question: With `Cc1[nH]c2ccccc2c1/C=C1\N=C(c2ccccc2)OC1=O` [(4Z)-4-[(2-methyl-1H-indol-3-yl)methylidene]-2-phenyl-5-oxazolone] as the compound, how does the IC50 read?
Answer: 4.18 µM

Question: `CCN(CC)CCOC(=O)c1ccc(N=CC(C#N)c2nc(-c3ccc4c(c3)OCO4)cs2)cc1` (stereo not given) [2-(diethylamino)ethyl 4-[[(Z)-2-[4-(1,3-benzodioxol-5-yl)-1,3-thiazol-2-yl]-2-cyano-ethenyl]amino]benzoate] was tested. Which IC50 did it give?
Answer: 31.4 µM

Question: Which IC50 does the source give for `CC1(C)CC(=O)C(=CNCC2CCN(C(=O)Cc3ccccc3)CC2)C(=O)C1` [5,5-dimethyl-2-[[[1-(2-phenylacetyl)piperidin-4-yl]methylamino]methylidene]cyclohexane-1,3-dione] here?
Answer: > 100 µM

Question: For `O=C1N=C(Nc2ccc(Cl)cc2Cl)SC1=Cc1c[nH]c2ccccc12`, which IC50 is on record?
Answer: 36.5 µM

Question: With `C=c1[nH]c2ccc(C)cc2c1=Cc1c(N)n2oc(C)cc2nc1=O` [MLS000730959] as the compound, how does the IC50 read?
Answer: 33.3 µM

Question: `CN(CCO)c1ccc(CN=Nc2ccc([N+](=O)[O-])cc2S(=O)(=O)Nc2ccccc2C(=O)O)cc1` was tested. Which IC50 did it give?
Answer: 37 µM

Question: With `O=C1c2ccccc2SC1/C=N/c1cc([N+](=O)[O-])ccc1O` (stereo not given) [(2Z)-2-[[(5-nitro-2-oxidanyl-phenyl)amino]methylidene]-1-benzothiophen-3-one] as the compound, how does the IC50 read?
Answer: 3.28 µM

Question: How did the IC50 turn out when `COC1=CC([N+](=O)[O-])=CC(/C=N/NC(=O)c2cc(-c3ccccc3)nc3ccccc23)C1=O` (stereo not given) was run?
Answer: 22.3 µM

Question: How did the IC50 turn out when `C=CCN1C(=O)C(/C=N/c2cccc([N+](=O)[O-])c2)C(=O)N(CCCC)C1=O` (stereo not given) [MLS000543529] was run?
Answer: 34 µM

Question: Which IC50 does the source give for `COC1=CC(=Cc2c(C)[nH]n(-c3cccc(Br)c3)c2=O)C=C(OC)C1=O` here?
Answer: 23.1 µM

Question: For `Cc1cc(=O)[nH]c(N=NCc2c(O)n(-c3ccccc3)c(=O)c3ccccc23)n1` [SMR000221270], which IC50 is on record?
Answer: 18.4 µM

Question: Which IC50 does the source give for `C=c1[nH]n(-c2nnc(C)c(=O)[nH]2)c(=O)c1=Cc1ccc(N(CC)CC)cc1` [3-{4-[1-(4-Diethylamino-phenyl)-meth-(Z)-ylidene]-3-methyl-5-oxo-4,5-dihydro-pyrazol-1-yl}-6-methyl-4H -[1,2,4]triazin-5-one] here?
Answer: 49.4 µM

Question: Which IC50 does the source give for `CSc1nsc(CC=Nc2ccc(C(=O)O)cc2)c1C#N` [4-({2-[4-cyano-3-(methylsulfanyl)-5-isothiazolyl]vinyl}amino)benzenecarboxylic acid] here?
Answer: 24.8 µM

Question: With `COC1=CC([N+](=O)[O-])=CC(/C=N/NC(=O)c2cncc(Br)c2)C1=O` (stereo not given) [5-bromo-N'-[(E)-(5-methoxy-3-nitro-6-oxo-1-cyclohexa-2,4-dienylidene)methyl]-3-pyridinecarbohydrazide] as the compound, how does the IC50 read?
Answer: 49.5 µM

Question: How did the IC50 turn out when `CC(=O)C1C(=O)OC(=CC=Cc2ccccc2)C1=O` (stereo not given) [3-acetyl-5-cinnamylidene-4-hydroxy-2-furanone] was run?
Answer: 35.2 µM

Question: With `CCCCCCCCCCCC1N=C(N)N=C(CCCO)C1C(=O)OC` (stereo not given) [SMR001565729] as the compound, how does the IC50 read?
Answer: 19.9 µM

Question: Which IC50 does the source give for `O=[N+]([O-])c1ccc(N=NCc2ccc[nH]2)cc1` [MLS000595102] here?
Answer: 8.96 µM

Question: `COc1cc(C=c2[nH]c3n(c2=O)CCCCC=3)ccc1O` [SMR000149996] was tested. Which IC50 did it give?
Answer: 14.8 µM

Question: With `CCN(CC)CCOC(=O)c1ccc(N=CC(C#N)c2nc(-c3ccc(OC)c(OC)c3)cs2)cc1` (stereo not given) [SMR000434079] as the compound, how does the IC50 read?
Answer: 23.2 µM
